# Laboratory results taken from the NIST ThermoML archive (doi:10.1016/j.tca.2004.12.009).
# Numbers after ± are expanded uncertainties.
# Experiments:
# [1] = Molar enthalpy of transition or fusion; conditions: DSC
# [2] = DTA
smiles,measurement,setting,value
NC(N)=Nc1nc(CSCC/C(N)=N/S(N)(=O)=O)cs1 [famotidine],Molar enthalpy of transition or fusion,[1]; Crystal 1,13.2 ± 0.43 kcal/mol
same,Molar enthalpy of transition or fusion,[1]; Metastable crystal,12.2 ± 0.813 kcal/mol
same,Normal melting temperature,[2]; Crystal 1,170.60 ± 0.6 °C
same,Normal melting temperature,[2]; Metastable crystal,162.90 ± 0.9 °C
